Test results from patent US20120122860A1, “SOLID FORMS OF SULFONAMIDES AND AMINO ACIDS” (Plexxikon, Inc., priority 2009, published 2012).

Columns and labels:
[1] = biological target: C-Raf (Homo sapiens, UniProt P04049); assay: Kinase activity assay, C-Raf
[2] = biological target: B-Raf V600E (Homo sapiens, UniProt P15056, V600E); assay: Kinase activity assay, B-Raf V600E; type: biochemical; details: read-out: activity toward kinase B-Raf V600E, IC50
[3] = biological target: T1, A-Raf (Homo sapiens, UniProt P10398); assay: Kinase activity assay, A-Raf
T1 sequence (P10398 1-606): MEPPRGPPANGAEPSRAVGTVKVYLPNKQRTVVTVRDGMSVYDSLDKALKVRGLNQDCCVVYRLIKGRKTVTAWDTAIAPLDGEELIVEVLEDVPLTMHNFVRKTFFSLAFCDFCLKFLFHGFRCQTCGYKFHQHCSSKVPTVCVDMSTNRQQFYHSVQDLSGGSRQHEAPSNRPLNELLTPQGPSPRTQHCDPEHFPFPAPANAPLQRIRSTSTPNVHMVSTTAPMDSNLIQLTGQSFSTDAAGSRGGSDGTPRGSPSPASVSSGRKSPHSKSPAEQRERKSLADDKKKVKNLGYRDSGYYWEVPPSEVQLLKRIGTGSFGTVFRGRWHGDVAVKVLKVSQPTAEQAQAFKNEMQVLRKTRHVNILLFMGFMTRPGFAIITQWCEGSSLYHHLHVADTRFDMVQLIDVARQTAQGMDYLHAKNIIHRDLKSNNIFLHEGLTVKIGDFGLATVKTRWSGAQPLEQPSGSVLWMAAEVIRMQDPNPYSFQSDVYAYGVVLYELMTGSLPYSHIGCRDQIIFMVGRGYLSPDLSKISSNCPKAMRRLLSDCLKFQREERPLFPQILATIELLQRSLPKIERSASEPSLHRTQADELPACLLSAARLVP

[4] = biological target: B-Raf (Homo sapiens, UniProt P15056); assay: Kinase activity assay, B-Raf; type: biochemical; details: read-out: activity toward kinase B-Raf, IC50
[5] = biological target: MAP4K4 (Homo sapiens, UniProt O95819); assay: Kinase activity assay, MAP4K4
[6] = biological target: Kit (Homo sapiens, UniProt P10721); assay: Kinase activity assay, Kit
[7] = biological target: Kdr (Homo sapiens, UniProt P35968); assay: Kinase activity assay, Kdr
[8] = biological target: Src (Homo sapiens, UniProt P12931); assay: Kinase activity assay, Src

Measured: IC50

Sequence of Kdr (P35968 20-1356): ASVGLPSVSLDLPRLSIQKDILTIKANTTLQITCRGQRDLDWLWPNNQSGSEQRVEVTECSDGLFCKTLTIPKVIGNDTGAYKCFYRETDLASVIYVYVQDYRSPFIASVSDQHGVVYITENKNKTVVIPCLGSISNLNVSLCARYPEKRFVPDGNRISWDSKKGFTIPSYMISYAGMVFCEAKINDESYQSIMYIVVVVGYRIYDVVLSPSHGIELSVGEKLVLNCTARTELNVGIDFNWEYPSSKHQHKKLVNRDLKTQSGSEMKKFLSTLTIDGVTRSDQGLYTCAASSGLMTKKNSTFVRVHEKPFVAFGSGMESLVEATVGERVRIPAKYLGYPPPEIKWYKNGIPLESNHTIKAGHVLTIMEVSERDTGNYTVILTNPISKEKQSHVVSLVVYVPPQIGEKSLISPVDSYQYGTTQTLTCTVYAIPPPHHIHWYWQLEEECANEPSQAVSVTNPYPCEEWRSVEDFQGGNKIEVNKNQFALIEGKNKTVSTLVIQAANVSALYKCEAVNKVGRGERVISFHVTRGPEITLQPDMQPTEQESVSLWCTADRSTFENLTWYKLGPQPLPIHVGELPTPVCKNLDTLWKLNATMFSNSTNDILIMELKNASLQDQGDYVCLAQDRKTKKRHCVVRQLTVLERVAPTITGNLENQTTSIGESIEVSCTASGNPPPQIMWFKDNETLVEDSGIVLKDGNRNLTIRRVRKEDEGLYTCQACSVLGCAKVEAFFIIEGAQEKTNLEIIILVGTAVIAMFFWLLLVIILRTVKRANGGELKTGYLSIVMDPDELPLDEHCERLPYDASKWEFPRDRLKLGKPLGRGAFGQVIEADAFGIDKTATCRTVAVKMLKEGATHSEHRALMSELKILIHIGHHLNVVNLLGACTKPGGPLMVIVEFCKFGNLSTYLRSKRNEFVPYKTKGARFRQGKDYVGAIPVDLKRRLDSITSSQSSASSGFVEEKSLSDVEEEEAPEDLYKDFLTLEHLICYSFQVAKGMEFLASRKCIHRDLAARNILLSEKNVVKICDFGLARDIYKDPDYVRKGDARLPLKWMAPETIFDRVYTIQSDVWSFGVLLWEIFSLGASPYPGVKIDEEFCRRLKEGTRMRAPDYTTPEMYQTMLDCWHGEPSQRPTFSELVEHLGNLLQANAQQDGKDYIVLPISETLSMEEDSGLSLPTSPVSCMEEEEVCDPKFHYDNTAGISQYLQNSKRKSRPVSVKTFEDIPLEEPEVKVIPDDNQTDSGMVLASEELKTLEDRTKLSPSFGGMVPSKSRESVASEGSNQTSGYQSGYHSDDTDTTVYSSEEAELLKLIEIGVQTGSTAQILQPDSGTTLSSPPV
Sequence of Kit (P10721 26-976): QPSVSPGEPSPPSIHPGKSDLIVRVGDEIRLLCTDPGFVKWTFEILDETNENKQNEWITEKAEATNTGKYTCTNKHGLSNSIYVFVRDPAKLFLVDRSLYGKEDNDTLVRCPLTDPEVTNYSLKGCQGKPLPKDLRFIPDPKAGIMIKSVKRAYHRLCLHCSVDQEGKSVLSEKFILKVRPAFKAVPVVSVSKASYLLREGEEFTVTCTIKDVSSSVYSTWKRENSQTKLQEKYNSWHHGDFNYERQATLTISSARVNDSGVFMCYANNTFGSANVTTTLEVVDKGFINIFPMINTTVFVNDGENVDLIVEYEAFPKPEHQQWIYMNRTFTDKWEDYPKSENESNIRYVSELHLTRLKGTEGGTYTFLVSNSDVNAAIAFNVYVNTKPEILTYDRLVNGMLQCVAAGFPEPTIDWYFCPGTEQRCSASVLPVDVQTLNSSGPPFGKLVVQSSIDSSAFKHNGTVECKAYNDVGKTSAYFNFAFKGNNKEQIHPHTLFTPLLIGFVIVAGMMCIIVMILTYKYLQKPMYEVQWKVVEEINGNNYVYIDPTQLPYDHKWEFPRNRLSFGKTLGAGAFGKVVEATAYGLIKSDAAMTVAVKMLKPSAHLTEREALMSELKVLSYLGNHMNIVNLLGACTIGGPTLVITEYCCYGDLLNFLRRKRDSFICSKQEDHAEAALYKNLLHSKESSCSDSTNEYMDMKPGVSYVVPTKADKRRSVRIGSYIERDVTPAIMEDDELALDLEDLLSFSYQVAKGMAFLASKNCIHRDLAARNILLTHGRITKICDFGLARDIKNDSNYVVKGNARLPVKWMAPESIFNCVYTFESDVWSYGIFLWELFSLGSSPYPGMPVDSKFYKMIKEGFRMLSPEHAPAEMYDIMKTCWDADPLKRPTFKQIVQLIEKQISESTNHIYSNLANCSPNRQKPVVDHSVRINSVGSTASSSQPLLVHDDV
Sequence of MAP4K4 (O95819 whole entry): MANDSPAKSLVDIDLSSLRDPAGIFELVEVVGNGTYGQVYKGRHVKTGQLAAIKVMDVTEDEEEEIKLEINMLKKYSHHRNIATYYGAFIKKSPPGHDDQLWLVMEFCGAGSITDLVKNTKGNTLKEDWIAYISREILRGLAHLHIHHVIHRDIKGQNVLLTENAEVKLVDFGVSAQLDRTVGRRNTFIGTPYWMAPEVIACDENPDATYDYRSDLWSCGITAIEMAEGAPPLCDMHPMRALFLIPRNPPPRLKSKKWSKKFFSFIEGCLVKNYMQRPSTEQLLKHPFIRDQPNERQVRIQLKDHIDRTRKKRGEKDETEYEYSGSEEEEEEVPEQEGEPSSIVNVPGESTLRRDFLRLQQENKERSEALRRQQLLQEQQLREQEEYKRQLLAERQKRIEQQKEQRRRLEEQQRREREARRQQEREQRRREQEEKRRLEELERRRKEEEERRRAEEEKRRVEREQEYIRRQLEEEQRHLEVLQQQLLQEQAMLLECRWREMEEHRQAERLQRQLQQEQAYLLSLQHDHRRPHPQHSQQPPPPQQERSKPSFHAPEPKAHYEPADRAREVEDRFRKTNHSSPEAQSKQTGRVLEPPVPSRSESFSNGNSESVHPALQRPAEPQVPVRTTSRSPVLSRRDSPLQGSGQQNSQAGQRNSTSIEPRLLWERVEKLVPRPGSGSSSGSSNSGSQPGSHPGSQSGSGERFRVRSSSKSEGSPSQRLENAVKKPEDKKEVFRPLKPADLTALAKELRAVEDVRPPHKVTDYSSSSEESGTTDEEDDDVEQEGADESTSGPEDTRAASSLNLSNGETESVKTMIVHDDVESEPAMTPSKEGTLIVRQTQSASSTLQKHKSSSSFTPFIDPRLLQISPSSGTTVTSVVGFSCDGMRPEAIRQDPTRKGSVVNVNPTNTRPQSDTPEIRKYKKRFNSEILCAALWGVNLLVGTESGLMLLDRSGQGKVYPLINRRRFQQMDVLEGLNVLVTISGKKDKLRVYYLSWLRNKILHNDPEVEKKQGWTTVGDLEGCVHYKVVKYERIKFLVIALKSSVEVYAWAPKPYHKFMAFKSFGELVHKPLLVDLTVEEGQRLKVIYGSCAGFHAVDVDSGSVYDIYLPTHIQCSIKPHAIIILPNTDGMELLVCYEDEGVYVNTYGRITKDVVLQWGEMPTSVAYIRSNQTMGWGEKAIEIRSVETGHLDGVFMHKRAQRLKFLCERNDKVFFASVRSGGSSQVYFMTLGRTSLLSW
Sequence of B-Raf (P15056 whole entry): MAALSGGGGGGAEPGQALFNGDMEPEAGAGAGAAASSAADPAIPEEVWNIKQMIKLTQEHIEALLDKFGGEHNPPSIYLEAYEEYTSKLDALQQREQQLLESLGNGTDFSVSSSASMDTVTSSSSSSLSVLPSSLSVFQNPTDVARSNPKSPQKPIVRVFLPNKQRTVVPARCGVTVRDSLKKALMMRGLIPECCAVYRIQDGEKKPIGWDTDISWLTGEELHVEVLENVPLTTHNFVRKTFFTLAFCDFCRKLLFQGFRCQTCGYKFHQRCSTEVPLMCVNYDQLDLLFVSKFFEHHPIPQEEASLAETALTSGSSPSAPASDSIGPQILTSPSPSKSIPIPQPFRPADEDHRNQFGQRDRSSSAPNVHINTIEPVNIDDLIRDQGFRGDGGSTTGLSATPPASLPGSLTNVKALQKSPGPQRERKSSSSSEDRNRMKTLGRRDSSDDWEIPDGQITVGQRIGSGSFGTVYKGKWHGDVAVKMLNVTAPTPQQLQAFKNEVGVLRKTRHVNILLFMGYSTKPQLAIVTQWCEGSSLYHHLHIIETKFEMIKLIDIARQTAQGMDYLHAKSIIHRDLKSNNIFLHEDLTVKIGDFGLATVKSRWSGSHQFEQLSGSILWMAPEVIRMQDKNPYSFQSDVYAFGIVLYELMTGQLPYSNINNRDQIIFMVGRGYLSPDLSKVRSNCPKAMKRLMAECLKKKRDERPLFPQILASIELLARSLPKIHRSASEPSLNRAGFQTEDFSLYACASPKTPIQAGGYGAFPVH
Sequence of Src (P12931 whole entry): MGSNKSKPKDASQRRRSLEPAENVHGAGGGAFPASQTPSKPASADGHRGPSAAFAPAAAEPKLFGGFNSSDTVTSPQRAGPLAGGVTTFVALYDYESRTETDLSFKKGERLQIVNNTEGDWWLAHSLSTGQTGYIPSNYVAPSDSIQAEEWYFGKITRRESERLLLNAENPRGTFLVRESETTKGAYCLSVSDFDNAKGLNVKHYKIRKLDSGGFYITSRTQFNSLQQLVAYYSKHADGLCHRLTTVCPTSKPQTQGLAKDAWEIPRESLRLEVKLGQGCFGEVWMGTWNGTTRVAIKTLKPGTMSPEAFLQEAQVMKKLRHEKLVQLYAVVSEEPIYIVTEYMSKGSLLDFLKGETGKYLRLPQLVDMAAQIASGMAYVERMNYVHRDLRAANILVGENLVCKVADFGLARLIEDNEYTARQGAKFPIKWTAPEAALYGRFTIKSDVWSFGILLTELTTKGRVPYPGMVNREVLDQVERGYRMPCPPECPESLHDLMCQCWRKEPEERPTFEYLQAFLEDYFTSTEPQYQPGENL
Sequence of B-Raf V600E (P15056 whole entry V600E): as the sequence (P15056 whole entry) above, with V600E counted along it

Cc1cnc2[nH]cc(C(=O)c3c(F)ccc(NS(=O)(=O)c4cccc(F)c4)c3F)c2c1 [P-2016, N-[2,4-Difluoro-3-(5-methyl-1H-pyrrolo[2,3-b]pyridine-3-carbonyl)-phenyl]-3-fluoro-benzenesulfonamide]
≤ 10 µM: all assays above

O=C(c1c(F)ccc(NS(=O)(=O)c2cccc(F)c2)c1F)c1c[nH]c2nccc(Cl)c12 [P-2019, N-[3-(4-Chloro-1H-pyrrolo[2,3-b]pyridine-3-carbonyl)-2,4-difluoro-phenyl]-3-fluoro-benzenesulfonamide]
≤ 10 µM: all assays above

N#Cc1ccnc2[nH]cc(C(=O)c3c(F)ccc(NS(=O)(=O)c4cc(F)ccc4F)c3F)c12 [P-2036, N-[3-(4-Cyano-1H-pyrrolo[2,3-b]pyridine-3-carbonyl)-2,4-difluoro-phenyl]-2,5-difluoro-benzenesulfonamide]
≤ 10 µM: all assays above

CCCS(=O)(=O)Nc1ccc(F)c(C(=O)c2c[nH]c3ncc(-c4ccc(N5CCCC5)nc4)cc23)c1F [P-2231, Propane-1-sulfonic acid {2,4-difluoro-3-[5-(6-pyrrolidin-1-yl-pyridin-3-yl)-1H-pyrrolo[2,3-b]pyridine-3-carbonyl]-phenyl}-amide]
≤ 10 µM: all assays above

CCS(=O)(=O)Nc1ccc(F)c(C(=O)c2c[nH]c3ncc(OC)cc23)c1F [P-2272, Ethanesulfonic acid [2,4-difluoro-3-(5-methoxy-1H-pyrrolo[2,3-b]pyridine-3-carbonyl)-phenyl]-amide]
≤ 10 µM: all assays above

CC(C)S(=O)(=O)Nc1ccc(F)c(C(=O)c2c[nH]c3ncc(Cl)cc23)c1F [P-2275, Propane-2-sulfonic acid [3-(5-chloro-1H-pyrrolo[2,3-b]pyridine-3-carbonyl)-2,4-difluoro-phenyl]-amide]
≤ 10 µM: all assays above

CS(=O)(=O)Nc1ccc(F)c(C(=O)c2c[nH]c3nccc(Cl)c23)c1F [P-2290, N-[3-(4-Chloro-1H-pyrrolo[2,3-b]pyridine-3-carbonyl)-2,4-difluoro-phenyl]-methanesulfonamide]
≤ 10 µM: all assays above

COc1cnc2[nH]cc(C(=O)c3c(F)ccc(NS(=O)(=O)CCC(F)(F)F)c3F)c2c1 [P-2327, 3,3,3-Trifluoro-propane-1-sulfonic acid [2,4-difluoro-3-(5-methoxy-1H-pyrrolo[2,3-b]pyridine-3-carbonyl)-phenyl]-amide]
≤ 10 µM: all assays above
